Measurements from patent publication US20070225330A1, “USE OF CERTAIN PHENYL-NAPHTHYL COMPOUNDS THAT DO NOT HAVE SIGNIFICANT AFFINITY TO ER ALPHA OR ER BETA FOR PROTECTION OF NEURONS AND OLIGODENDROCYTES IN THE TREATMENT OF MULTIPLE SCLEROSIS” (AVENTIS PHARMACEUTICALS INC., priority 2004, published 2007).

Assays:
[1] = target: T1, ER α (Homo sapiens, UniProt P03372); assay: Affinity for ER receptors (α); format: binding; settings: unit not given
T1 sequence (P03372 1-595): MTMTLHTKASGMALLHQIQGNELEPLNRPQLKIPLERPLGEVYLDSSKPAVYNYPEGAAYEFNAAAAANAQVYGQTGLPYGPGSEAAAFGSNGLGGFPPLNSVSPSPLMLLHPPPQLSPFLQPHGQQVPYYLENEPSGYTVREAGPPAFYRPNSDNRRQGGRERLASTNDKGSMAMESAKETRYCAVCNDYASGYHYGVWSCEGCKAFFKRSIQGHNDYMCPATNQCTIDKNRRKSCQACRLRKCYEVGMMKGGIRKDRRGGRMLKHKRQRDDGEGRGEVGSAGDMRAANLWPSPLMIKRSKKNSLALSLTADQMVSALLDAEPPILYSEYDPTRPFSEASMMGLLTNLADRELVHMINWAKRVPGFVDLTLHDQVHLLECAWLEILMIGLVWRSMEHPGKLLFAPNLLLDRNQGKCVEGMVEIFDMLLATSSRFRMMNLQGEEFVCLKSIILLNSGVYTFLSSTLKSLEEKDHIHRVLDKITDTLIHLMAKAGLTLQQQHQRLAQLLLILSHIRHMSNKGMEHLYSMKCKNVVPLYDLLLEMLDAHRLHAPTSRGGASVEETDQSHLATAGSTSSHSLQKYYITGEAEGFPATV

[2] = system: Primary rat oligodendrocyte progenitor cells; assay: Oligodendrocyte toxicity assay (LDH release, protection against toxin-induced toxicity); format: cell-based; settings: compound pretreatment 1 hour, LDH after 24 hours; for Oligodendrocyte progenitor protection against Camptothecin: Camptothecin 10 μM; for Oligodendrocyte progenitor protection against SIN-1: SIN-1 10 mM
Protocol: Oligodendrocyte Toxicity Assay
Primary rat oligodendrocyte progenitor cells were obtained from the cerebra of 2-3 day old postnatal rats (Sprague Dawley). The meninges were removed and tissue was mechanically dissociated. Cells were plated on T75 flasks and fed with DMEM+10% FBS.
Enriched OLPs were collected by mechanical separation from the astrocytic monolayer and were expanded in serum free media (SFM) supplemented with the mitogens, PDGF-AA (10 ng/ml) and FGF-2 (10 ng/ml).
To generate mature oligodendrocytes, progenitor cells were switched to SFM supplemented with IGF-1 (10 ng/ml) 24 hours after plating and cells were grown under these conditions for 7 days prior to experimental assays.
Cells were plated in 96-well plates, 10,000 per well. Medium was changed to fresh medium and cells were pretreated with compounds for 1 hour. Toxins were added to give the following final concentrations:
After 24 hours, medium was removed and assayed for LDH activity using the Promega cytotox 96 kit (catalog #G1780). Results were calculated as percent protection against toxin-induced toxicity.

[3] = target: ER β (Homo sapiens, UniProt Q92731); assay: Affinity for ER receptors (β); format: binding; settings: unit not given
Chain of ER β (Q92731 whole entry): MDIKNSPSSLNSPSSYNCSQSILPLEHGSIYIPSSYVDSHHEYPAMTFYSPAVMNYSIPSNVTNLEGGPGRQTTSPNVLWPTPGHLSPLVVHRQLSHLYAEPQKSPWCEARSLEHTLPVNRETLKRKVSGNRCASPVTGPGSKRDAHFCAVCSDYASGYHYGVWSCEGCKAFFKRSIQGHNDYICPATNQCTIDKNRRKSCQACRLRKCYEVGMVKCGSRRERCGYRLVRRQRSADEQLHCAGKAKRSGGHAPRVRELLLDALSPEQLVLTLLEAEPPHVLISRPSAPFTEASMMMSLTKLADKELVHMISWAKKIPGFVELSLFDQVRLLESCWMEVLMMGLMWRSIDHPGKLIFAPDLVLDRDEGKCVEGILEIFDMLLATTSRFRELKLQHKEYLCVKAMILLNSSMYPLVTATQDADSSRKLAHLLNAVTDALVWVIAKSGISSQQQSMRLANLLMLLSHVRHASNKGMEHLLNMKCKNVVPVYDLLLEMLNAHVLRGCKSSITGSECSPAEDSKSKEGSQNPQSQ

Compound | Affinity for ER receptors* α [1] | Oligodendrocyte progenitor protection against Camptothecin [2] | Oligodendrocyte progenitor protection against SIN-1 [2] | Affinity for ER receptors* β [3]
Oc1ccc(-c2ccc3cc(O)ccc3c2Cl)cc1 [Compound 4, 5-chloro-6-(4-hydroxyphenyl)-2-naphthalenol] | 35.4 | Effective | Effective | 3
Oc1ccc(-c2ccc3cc(O)ccc3c2)cc1 [Compound 7, 6-(4-Hydroxy-phenyl)-2-naphthalenol] | 408 | Effective | Effective | 14.7
COc1ccc(-c2sc3cc(O)ccc3c2Oc2ccc(OCCN3CCCCC3)cc2)cc1 [Compound 10, Arzoxifen] | – | Very effective | Very effective | –
C[C@@]12CCc3cc(O)ccc3[C@H]1CC[C@@]1(C)[C@H]2CC[C@@H]1O [Compound 11, Estrogen] | 1.17 | Effective | Effective | 6.1
